Measurements reported in PubChem BioAssay (NCI).
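GI50 = concentration required for 50% inhibition of growth. TGI: concentration producing complete growth inhibition.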

Experiments:
Assay in all cases: DTP human tumour cell line panel, 384-well format
HL-60(TB) leukemia = test system: HL-60(TB) leukemia
SK-MEL-2 melanoma = test system: SK-MEL-2 melanoma
MOLT-4 leukemia = test system: MOLT-4 leukemia
NCI-H226 lung = test system: NCI-H226 lung
SN12C renal = test system: SN12C renal
MDA-MB-468 breast = test system: MDA-MB-468 breast
SF-268 CNS = test system: SF-268 CNS
NCI-H460 NSCLC = test system: NCI-H460 NSCLC
EKVX NSCLC = test system: EKVX NSCLC
SF-539 CNS = test system: SF-539 CNS
MDA-MB-231 breast = test system: MDA-MB-231 breast
U251 glioblastoma = test system: U251 glioblastoma
SK-MEL-28 melanoma = test system: SK-MEL-28 melanoma
NCI/ADR-RES ovarian = test system: NCI/ADR-RES ovarian
HOP-62 NSCLC = test system: HOP-62 NSCLC
MALME-3M melanoma = test system: MALME-3M melanoma
A549 NSCLC = test system: A549 NSCLC
M14 melanoma = test system: M14 melanoma
HOP-92 NSCLC = test system: HOP-92 NSCLC
SNB-19 CNS = test system: SNB-19 CNS
UACC-62 melanoma = test system: UACC-62 melanoma
NCI-H322M lung = test system: NCI-H322M lung
RPMI-8226 leukemia = test system: RPMI-8226 leukemia
SNB-75 CNS = test system: SNB-75 CNS
SR leukemia = test system: SR leukemia
SK-OV-3 ovarian = test system: SK-OV-3 ovarian
T-47D breast = test system: T-47D breast
HT29 colon = test system: HT29 colon
SW-620 colon = test system: SW-620 colon
TK-10 renal = test system: TK-10 renal
BT-549 breast = test system: BT-549 breast
OVCAR-5 ovarian = test system: OVCAR-5 ovarian
HCC-2998 colon = test system: HCC-2998 colon
MCF7 breast = test system: MCF7 breast
RXF 393 renal = test system: RXF 393 renal
NCI-H522 lung = test system: NCI-H522 lung
CAKI-1 renal = test system: CAKI-1 renal
KM12 colon = test system: KM12 colon
IGROV1 ovarian = test system: IGROV1 ovarian
SF-295 CNS = test system: SF-295 CNS
A498 renal = test system: A498 renal
CCRF-CEM leukemia = test system: CCRF-CEM leukemia
COLO 205 colon = test system: COLO 205 colon
OVCAR-8 ovarian = test system: OVCAR-8 ovarian
786-0 renal = test system: 786-0 renal
UACC-257 melanoma = test system: UACC-257 melanoma
ACHN renal = test system: ACHN renal
HCT-15 colon = test system: HCT-15 colon
DU-145 prostate = test system: DU-145 prostate
PC-3 prostate = test system: PC-3 prostate
OVCAR-4 ovarian = test system: OVCAR-4 ovarian
NCI-H23 lung = test system: NCI-H23 lung
MDA-MB-435 melanoma = test system: MDA-MB-435 melanoma
HS 578T breast = test system: HS 578T breast
SK-MEL-5 melanoma = test system: SK-MEL-5 melanoma
OVCAR-3 ovarian = test system: OVCAR-3 ovarian

Question: What does the source list for `CCc1ccc(/C=C2/SC(=S)NC2=O)cc1`?
Answer: GI50 (HL-60(TB) leukemia): 20.3 µM; TGI (HL-60(TB) leukemia): 34.9 µM; GI50 (SK-MEL-2 melanoma): 20.9 µM; TGI (SK-MEL-2 melanoma): 37.7 µM; GI50 (MOLT-4 leukemia): 16.9 µM; TGI (MOLT-4 leukemia): 30.6 µM; GI50 (NCI-H226 lung): 16.7 µM; TGI (NCI-H226 lung): 36.5 µM; GI50 (SN12C renal): 29.1 µM; TGI (SN12C renal): 95.8 µM; GI50 (MDA-MB-468 breast): 16.3 µM; TGI (MDA-MB-468 breast): 33.1 µM; GI50 (SF-268 CNS): 19.3 µM; TGI (SF-268 CNS): 45.8 µM; GI50 (NCI-H460 NSCLC): 17.8 µM; TGI (NCI-H460 NSCLC): 33.3 µM; GI50 (EKVX NSCLC): 20.8 µM; TGI (EKVX NSCLC): 49.5 µM; GI50 (SF-539 CNS): 15.9 µM; TGI (SF-539 CNS): 30.8 µM; GI50 (MDA-MB-231 breast): 20.7 µM; TGI (MDA-MB-231 breast): 49.5 µM; GI50 (U251 glioblastoma): 17.3 µM; TGI (U251 glioblastoma): 33.1 µM; GI50 (SK-MEL-28 melanoma): 24.7 µM; TGI (SK-MEL-28 melanoma): 55.2 µM; GI50 (NCI/ADR-RES ovarian): 21 µM; TGI (NCI/ADR-RES ovarian): 45 µM; GI50 (HOP-62 NSCLC): 22.1 µM; TGI (HOP-62 NSCLC): 42.9 µM; GI50 (MALME-3M melanoma): 15.9 µM; TGI (MALME-3M melanoma): 33.9 µM; GI50 (A549 NSCLC): 19.8 µM; TGI (A549 NSCLC): 46.2 µM; GI50 (M14 melanoma): 19.6 µM; TGI (M14 melanoma): 39.6 µM; GI50 (HOP-92 NSCLC): 18.1 µM; TGI (HOP-92 NSCLC): 37.9 µM; GI50 (SNB-19 CNS): 33.4 µM; TGI (SNB-19 CNS): > 100 µM; GI50 (UACC-62 melanoma): 31.1 µM; TGI (UACC-62 melanoma): 83.2 µM; GI50 (NCI-H322M lung): 22.5 µM; TGI (NCI-H322M lung): 44.8 µM; GI50 (RPMI-8226 leukemia): 15.6 µM; TGI (RPMI-8226 leukemia): 29.1 µM; GI50 (SNB-75 CNS): 21.4 µM; TGI (SNB-75 CNS): 51.2 µM; GI50 (SR leukemia): 12.5 µM; TGI (SR leukemia): 25.1 µM; GI50 (SK-OV-3 ovarian): 18.5 µM; TGI (SK-OV-3 ovarian): 43.2 µM; GI50 (T-47D breast): 23.6 µM; TGI (T-47D breast): 49.4 µM; GI50 (HT29 colon): 24.9 µM; TGI (HT29 colon): 57.2 µM; GI50 (SW-620 colon): 24.5 µM; TGI (SW-620 colon): 59.6 µM; GI50 (TK-10 renal): 26.3 µM; TGI (TK-10 renal): 74.1 µM; GI50 (BT-549 breast): 19.7 µM; TGI (BT-549 breast): 36.1 µM; GI50 (OVCAR-5 ovarian): 17.5 µM; TGI (OVCAR-5 ovarian): 43.5 µM; GI50 (HCC-2998 colon): 21.6 µM; TGI (HCC-2998 colon): 43.6 µM; GI50 (MCF7 breast): 26.2 µM; TGI (MCF7 breast): 68 µM; GI50 (RXF 393 renal): 21.2 µM; TGI (RXF 393 renal): 42.7 µM; GI50 (NCI-H522 lung): 14.7 µM; TGI (NCI-H522 lung): 36.9 µM; GI50 (CAKI-1 renal): 19.3 µM; TGI (CAKI-1 renal): 47.6 µM; GI50 (KM12 colon): 20.7 µM; TGI (KM12 colon): 44.1 µM; GI50 (IGROV1 ovarian): 30.5 µM; TGI (IGROV1 ovarian): > 100 µM; GI50 (SF-295 CNS): 33.7 µM; TGI (SF-295 CNS): > 100 µM; GI50 (A498 renal): 16.7 µM; TGI (A498 renal): 33.1 µM; GI50 (CCRF-CEM leukemia): 16.5 µM; TGI (CCRF-CEM leukemia): 30.3 µM; GI50 (COLO 205 colon): 27.1 µM; TGI (COLO 205 colon): 54.1 µM; GI50 (OVCAR-8 ovarian): 22.8 µM; TGI (OVCAR-8 ovarian): 51 µM; GI50 (786-0 renal): 28.6 µM; TGI (786-0 renal): 88 µM; GI50 (UACC-257 melanoma): 21.3 µM; TGI (UACC-257 melanoma): 42.1 µM; GI50 (ACHN renal): 25 µM; TGI (ACHN renal): 60.5 µM; GI50 (HCT-15 colon): 18.5 µM; TGI (HCT-15 colon): 44 µM; GI50 (DU-145 prostate): 27.7 µM; TGI (DU-145 prostate): 85.3 µM; GI50 (PC-3 prostate): 23.4 µM; TGI (PC-3 prostate): 49.8 µM; GI50 (OVCAR-4 ovarian): 13.6 µM; TGI (OVCAR-4 ovarian): 46.9 µM; GI50 (NCI-H23 lung): 15.7 µM; TGI (NCI-H23 lung): 34.6 µM; GI50 (MDA-MB-435 melanoma): 21.2 µM; TGI (MDA-MB-435 melanoma): 44.9 µM; GI50 (HS 578T breast): 19.4 µM; TGI (HS 578T breast): 39.5 µM; GI50 (SK-MEL-5 melanoma): 18.6 µM; TGI (SK-MEL-5 melanoma): 33.1 µM; GI50 (OVCAR-3 ovarian): 18 µM; TGI (OVCAR-3 ovarian): 36.5 µM
